The record followed here is patent US6046043A, “Method for the conversion of carbonyl compounds to their β-unsaturated derivatives using molecular oxygen as the oxidant” (The Regents of the University of Michigan, priority 1998, dated 2000).

The target of data set [1] is T1, 8-CN-FMN-OYE (Saccharomyces pastorianus, UniProt Q02899).
T1 construct: made in house; host or cells: Escherichia coli (plasmid pET-3b)
In words: Oxidation of saturated carbonyl substrates by the catalyst with molecular oxygen (GC/MS). Format: biochemical. The procedure: Two ml of 10 mM solution of hydrocinnamaldehyde (C6 H5 --CH2 --CH2 --CHO) in 100 mM sodium pyrophosphate buffer, pH 8.5 was taken in a 5 ml test tube with a small magnetic stir bar at room temperature. The catalyst, as a concentrated solution in the same buffer, was added to the above solution so that final concentration of the catalyst is 10 μM. […]
When and wherever side reactions were observed due to hydrogen peroxide (which is produced during the oxidation), 5 μl of catalase (1 mg/ml) was added to the reaction mixture prior to the addition of the catalyst as a hydrogen peroxide scavenger.
The racemic 3-phenyl-butyraldehyde was subjected to typical oxidation reaction with the catalytic system of the present invention. […] It can be concluded, in analogy to the 3-Me-cyclopentanone reaction, that the oxidation of S-enantiomer only catalyzed by the catalyst leaving the R-enantiomer intact as hydrogen at the asymmetric center lies in unfavorable geometry. This reaction once again highlights the potential of the present catalytic system in resolving racemic carbonyl compounds.

Data set [2] is described as follows: Redox potential of flavin cofactor. Format: physicochemical.
Data set [3] concerns the target T2, Old Yellow Enzyme (Saccharomyces pastorianus, UniProt Q02899).
T2 construct: recombinant OYE I (pET-3b, E. coli) or enzyme isolated from brewer's bottom yeast (mix of close OYE isoforms)
Kind of data set: p-Cl-phenol binding to native Old Yellow Enzyme (charge transfer complex). Also on record: species or system Brewer's Bottom Yeast. The procedure: The apoprotein of Old Yellow Enzyme was prepared and reconstituted with 8-CN-8-demethyl-flavin mononucleotide as described above. […] Native enzyme binds p-Cl-phenol with a Kd of~1 μM and has a maximum of 645 nm for the charge transfer absorption band. The 115 nm blue shift thus falls in line with the 170 mV more positive potential compared to that of the native flavin.

T1 sequence (Q02899 whole entry): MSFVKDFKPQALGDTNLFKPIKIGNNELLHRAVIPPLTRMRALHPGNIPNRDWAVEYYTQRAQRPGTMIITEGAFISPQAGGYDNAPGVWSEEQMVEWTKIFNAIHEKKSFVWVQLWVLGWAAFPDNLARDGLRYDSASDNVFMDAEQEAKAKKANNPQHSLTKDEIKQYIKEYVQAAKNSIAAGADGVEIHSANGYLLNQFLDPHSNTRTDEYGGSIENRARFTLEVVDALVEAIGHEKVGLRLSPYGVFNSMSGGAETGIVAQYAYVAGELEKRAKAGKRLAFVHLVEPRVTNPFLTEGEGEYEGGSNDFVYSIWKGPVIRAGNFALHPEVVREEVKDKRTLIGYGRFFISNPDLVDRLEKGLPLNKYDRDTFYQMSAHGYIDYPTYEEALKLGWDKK
T2 sequence (Q02899 2-400): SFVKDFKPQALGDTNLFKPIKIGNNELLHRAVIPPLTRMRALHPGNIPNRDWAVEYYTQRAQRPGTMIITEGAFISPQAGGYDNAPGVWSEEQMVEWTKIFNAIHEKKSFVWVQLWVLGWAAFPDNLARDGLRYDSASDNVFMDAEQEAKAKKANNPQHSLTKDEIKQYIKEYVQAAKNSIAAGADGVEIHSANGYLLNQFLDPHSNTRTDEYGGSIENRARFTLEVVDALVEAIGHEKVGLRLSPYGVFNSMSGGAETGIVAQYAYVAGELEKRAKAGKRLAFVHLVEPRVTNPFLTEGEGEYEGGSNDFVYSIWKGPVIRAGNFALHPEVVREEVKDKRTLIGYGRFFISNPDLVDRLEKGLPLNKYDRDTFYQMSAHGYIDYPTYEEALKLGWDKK

For `CC(CC=O)c1ccccc1` (racemic) [3-phenyl-butyraldehyde], in data set [1] (racemic substrate, 36 hours-48 hours, GC/MS), the substrate reacted is recorded as ~ 50%.

In turn, `Cc1cc2nc3c(=O)[nH]c(=O)nc-3n(C[C@H](O)[C@H](O)[C@H](O)COP(=O)(O)O)c2cc1C#N` [8-CN-FMN, 8-CN-8-demethyl-flavin mononucleotide] came in with a redox potential in data set [2] of -38 mV. For the same compound, the “redox potential positive to the native cofactor, FMN” value in data set [2] (difference versus FMN) is given as “about 170 mV”.

For `O=CCCc1ccccc1` [hydrocinnamaldehyde], in data set [1] (10 mM substrate, 10 μM catalyst, pH 8.5, room temperature, 3 hours, GC/mass spectral analysis), the “conversion of the substrate to cinnamaldehyde” value was “complete conversion”.

What is called Kd is the concentration at which binding is half-saturated. Turning to `Oc1ccc(Cl)cc1` [p-Cl-phenol], the Kd in data set [3] is approximately 1000 nM.
